Source: patent EP4810483A1, “6- AND 5-HETEROARYL DERIVATIVES AND USE THEREOF” (CMS Research & Development Pte. Ltd., priority 2023, dated 2025)
Where two headings read alike, the source gives them in different places.

Columns and labels:
hKCNQ2/3 = target: T1, hKCNQ2/3 (Homo sapiens, UniProt O43525+O43526); experiment: cell-based
T1 construct: expressed in transfected cells; host or cells: CHO
Source text: Test Method 1: hKCNQ2/3 Thallium Flux Assay
Test Objective: To test the in vitro concentration-response relationship of compounds using FLIPR thallium flux assay in CHO cell lines stably expressing hKCNQ2/3.
According to the split ratio, the cells were transferred to another T-75 flask containing complete cell growth medium. Note: To maintain logarithmic growth, the cells should be kept in a subconfluent monolayer state. Based on the cell doubling time, the cells were passaged every 2-3 days.
• (1) Day 1 - Cell preparation: Cells were digested as described above, and cell density and viability were determined using a Cell Countess. The volume of the single-cell suspension was adjusted with complete cell growth medium. Then, hKCNQ2/3_CHO cells were seeded onto PDL-precoated 384-well plates at a density of approximately 20,000 cells/well (30 µL/well). The plates were then incubated overnight in a 37°C, 5% CO2 humidified air incubator. • (2) Day 2 - Compound preparation: Test compounds were diluted with dimethyl sulfoxide (DMSO) to stock concentrations and stored in a -20°C freezer. A compound addition program was set up on the ECHO liquid handler, and compounds were added to the plates using the ECHO liquid handler. Retigabine (RTG) was used as a positive control at a highest concentration of 100 µM with 3-fold serial dilutions for a total of 9 doses. Buffer containing 5 mM K^+ and 1 mM Tl^+ was added to the plates. Notes: 1) K2SO4 and Tl2SO4 were prepared in 1× chloride-free buffer. Depending on the voltage-gated potassium channel involved, the concentrations of Tl^+ and K^+ should be adjusted. Tl^+ concentration is approximately 0.5-5 mM, and K^+ concentration is approximately 5-30 mM. 2) Each 1 mM solution of K2SO4 and Tl2SO4 contains 2 mM K^+ and Tl^+; the final concentration should be calculated based on the ion concentration. 3) TlCl readily precipitates and a chloride-free buffer is required. • (3) Day 2 -Assay testing: Once the cells reached the desired confluence, the cell assay plates were removed from the incubator. Assay buffer and diluted Tl^+ dye (Molecular Devices # R8222) were prepared. The medium was discarded using a Bravo liquid handler, and 25 µL of Tl^+ dye was added to each well. After 1 hour of incubation, the cell assay plates, composite plates and FLIPR tips were placed in the FLIPR^TETRA (Molecular Devices, USA) for FLIPR detection. After setting up the tips, baseline readings were taken for 60 seconds, then 12.5 µL was added from the composite plate (3×) to the cell assay plate, and data were recorded for at least 5 minutes. • (4) Data processing: Maximum signals were generated by the FLIPR software. […] Data quality control: S/B > 2.00, Z factor > 0.50.
• (1) Day 1 - Cell preparation: Cells were digested as described above, and cell density and viability were determined using a Cell Countess. The volume of the single-cell suspension was adjusted with complete cell growth medium. Then, hKCNQ2/3_CHO cells were seeded onto PDL-precoated 384-well plates at a density of approximately 20,000 cells/well (30 µL/well). The plates were then incubated overnight in a 37°C, 5% CO2 humidified air incubator. • (2) Day 2 - Compound preparation: Test compounds were diluted with dimethyl sulfoxide (DMSO) to stock concentrations and stored in a -20°C freezer. A compound addition program was set up on the ECHO liquid handler, and compounds were added to the plates using the ECHO liquid handler. Retigabine (RTG) was used as a positive control at a highest concentration of 100 µM with 3-fold serial dilutions for a total of 9 doses. Buffer containing 5 mM K^+ and 1 mM Tl^+ was added to the plates. Notes: 1) K2SO4 and Tl2SO4 were prepared in 1× chloride-free buffer. Depending on the voltage-gated potassium channel involved, the concentrations of Tl^+ and K^+ should be adjusted. Tl^+ concentration is approximately 0.5 mM -5 mM, and K^+ concentration is approximately 5 mM -30 mM.

CYP1A2 = target: T2, CYP1A2 (Homo sapiens, UniProt P05177); experiment: Drug-drug interaction evaluation: CYP inhibition in human liver microsomes (cocktail method)
T2 sequence (P05177 1-516): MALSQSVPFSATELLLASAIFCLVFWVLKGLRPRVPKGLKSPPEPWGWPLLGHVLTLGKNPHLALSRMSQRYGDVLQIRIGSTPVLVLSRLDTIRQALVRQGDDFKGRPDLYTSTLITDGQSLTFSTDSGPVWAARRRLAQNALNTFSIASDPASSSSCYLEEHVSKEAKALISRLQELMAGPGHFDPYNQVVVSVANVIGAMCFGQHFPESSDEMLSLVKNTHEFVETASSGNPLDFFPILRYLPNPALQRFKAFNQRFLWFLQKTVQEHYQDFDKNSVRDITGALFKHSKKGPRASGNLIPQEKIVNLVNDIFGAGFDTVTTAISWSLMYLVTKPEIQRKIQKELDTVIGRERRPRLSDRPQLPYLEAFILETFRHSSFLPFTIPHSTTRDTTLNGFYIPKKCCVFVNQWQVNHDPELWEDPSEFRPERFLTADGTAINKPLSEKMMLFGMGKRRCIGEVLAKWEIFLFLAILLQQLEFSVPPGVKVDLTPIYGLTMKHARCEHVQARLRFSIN
Procedure: (§1) The cocktail method using specific probe substrates for CYP1A2, CYP2C9, CYP2C19, CYP2D6 and CYP3A was used to evaluate the inhibitory effect of the compounds on the activity of human liver microsomal cytochrome P450 isoenzymes (CYP1A2, CYP2C9, CYP2C19, CYP2D6 and CYP3A).
(§2) Human liver microsomes, probe substrates, positive control inhibitors, and reduced nicotinamide adenine dinucleotide phosphate (NADPH).
(§3) To the corresponding wells of a reaction plate, 20 µL of substrate solution was added; to blank wells, 20 µL of potassium phosphate buffer was added.
(§4) To the corresponding wells, 2 µL of test compound and positive control working solution were added; to inhibitor-free and blank wells, 2 µL of solvent was added.
(§5) Human liver microsome working solution was prepared, and 158 µL of human liver microsome working solution was added to each well of the reaction plate.
(§6) The plate was pre-incubated at 37.0°C for 10 minutes.
(§7) To start the reaction, 20 µL of NADPH cofactor working solution was added to the reaction plate.
(§8) After incubation in a 37.0°C water bath with mixing for 10 minutes, 400 µL of stop solution was added to terminate the reaction.
(§9) The sample plate was centrifuged at 4000 rpm for 20 minutes.
(§10) 200 µL of supernatant was taken and mixed with 100 µL of pure water as diluent, and the plate was shaken to mix well.
(§11) Analysis was performed by liquid chromatography-tandem mass spectrometry (LC-MS/MS).
(§12) Using the percentage of remaining activity as the ordinate and the test compound concentration as the abscissa, a non-linear regression analysis was performed with a three-parameter or four-parameter model using XL fit software to calculate the IC50 value.
(§13) y = (max)/(1 + (((x)/(IC50)))^−hillslope) [formula]
(§14) y = min + (max−min)/(1 + (((x)/(IC50)))^−hillslope) [formula]
(§15) max = maximum enzyme activity; min = minimum enzyme activity; x = concentration of test compound or positive control inhibitor; y = enzyme activity at the corresponding concentration; hillslope = slope; IC50 = half-maximal inhibitory concentration. The four-parameter equation was used when the minimum enzyme activity was within ±10%; otherwise the three-parameter equation was used.

CYP2C19 = CYP2C19 (Homo sapiens, UniProt P33261); experiment: as above
CYP2C19, sequence (P33261 whole entry): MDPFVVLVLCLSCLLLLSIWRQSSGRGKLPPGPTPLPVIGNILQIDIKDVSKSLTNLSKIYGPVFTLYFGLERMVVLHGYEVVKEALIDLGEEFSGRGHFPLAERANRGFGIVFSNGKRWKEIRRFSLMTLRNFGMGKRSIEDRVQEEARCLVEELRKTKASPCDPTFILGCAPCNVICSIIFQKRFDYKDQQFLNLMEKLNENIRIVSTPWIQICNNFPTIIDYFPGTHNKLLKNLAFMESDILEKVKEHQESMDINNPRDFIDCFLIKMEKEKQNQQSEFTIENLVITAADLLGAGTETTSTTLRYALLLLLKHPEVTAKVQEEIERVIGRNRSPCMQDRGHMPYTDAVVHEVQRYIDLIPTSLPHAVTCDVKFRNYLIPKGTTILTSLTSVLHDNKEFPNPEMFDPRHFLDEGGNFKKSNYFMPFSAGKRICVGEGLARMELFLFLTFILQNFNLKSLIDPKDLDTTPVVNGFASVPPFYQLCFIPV
Procedure: as §1, §2, §3, §4, §5, §6, §7, §8, §9, §10, §11, §12, §13, §14, §15

CYP2C9 = CYP2C9 (Homo sapiens, UniProt P11712); experiment: as above
CYP2C9, sequence (P11712 whole entry): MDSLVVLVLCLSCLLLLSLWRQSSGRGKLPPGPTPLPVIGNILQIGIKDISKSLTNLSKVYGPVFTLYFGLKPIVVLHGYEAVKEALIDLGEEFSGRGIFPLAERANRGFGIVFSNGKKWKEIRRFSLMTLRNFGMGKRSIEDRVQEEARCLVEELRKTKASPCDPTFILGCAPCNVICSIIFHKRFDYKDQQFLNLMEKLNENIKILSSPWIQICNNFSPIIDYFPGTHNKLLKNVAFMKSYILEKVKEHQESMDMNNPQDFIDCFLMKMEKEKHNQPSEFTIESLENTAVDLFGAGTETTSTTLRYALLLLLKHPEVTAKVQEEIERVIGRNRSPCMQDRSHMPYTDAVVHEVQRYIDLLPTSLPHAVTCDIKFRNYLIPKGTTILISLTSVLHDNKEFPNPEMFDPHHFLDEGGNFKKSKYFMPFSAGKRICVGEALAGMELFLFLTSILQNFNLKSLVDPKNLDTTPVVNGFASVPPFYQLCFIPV
Procedure: as §1, §2, §3, §4, §5, §6, §7, §8, §9, §10, §11, §12, §13, §14, §15

CYP2D6 = CYP2D6 (Homo sapiens, UniProt P10635); experiment: as above
CYP2D6, sequence (P10635 whole entry): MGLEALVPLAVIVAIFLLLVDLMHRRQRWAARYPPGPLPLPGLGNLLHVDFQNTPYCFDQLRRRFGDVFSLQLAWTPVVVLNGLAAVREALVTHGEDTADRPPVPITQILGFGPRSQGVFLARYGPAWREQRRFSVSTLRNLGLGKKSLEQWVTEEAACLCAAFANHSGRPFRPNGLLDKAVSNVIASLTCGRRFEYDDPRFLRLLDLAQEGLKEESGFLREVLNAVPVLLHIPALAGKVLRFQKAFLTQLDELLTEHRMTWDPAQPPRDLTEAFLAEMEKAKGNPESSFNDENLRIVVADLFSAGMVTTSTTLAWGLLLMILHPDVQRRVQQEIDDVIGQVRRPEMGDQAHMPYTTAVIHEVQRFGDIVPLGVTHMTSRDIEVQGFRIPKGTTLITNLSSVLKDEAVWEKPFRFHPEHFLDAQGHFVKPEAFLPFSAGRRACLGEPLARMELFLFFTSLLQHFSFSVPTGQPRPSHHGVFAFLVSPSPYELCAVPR
Procedure: as §1, §2, §3, §4, §5, §6, §7, §8, §9, §10, §11, §12, §13, §14, §15

CYP3A4 = CYP3A4 (Homo sapiens, UniProt P08684); experiment: as above
CYP3A4, sequence (P08684 2-503): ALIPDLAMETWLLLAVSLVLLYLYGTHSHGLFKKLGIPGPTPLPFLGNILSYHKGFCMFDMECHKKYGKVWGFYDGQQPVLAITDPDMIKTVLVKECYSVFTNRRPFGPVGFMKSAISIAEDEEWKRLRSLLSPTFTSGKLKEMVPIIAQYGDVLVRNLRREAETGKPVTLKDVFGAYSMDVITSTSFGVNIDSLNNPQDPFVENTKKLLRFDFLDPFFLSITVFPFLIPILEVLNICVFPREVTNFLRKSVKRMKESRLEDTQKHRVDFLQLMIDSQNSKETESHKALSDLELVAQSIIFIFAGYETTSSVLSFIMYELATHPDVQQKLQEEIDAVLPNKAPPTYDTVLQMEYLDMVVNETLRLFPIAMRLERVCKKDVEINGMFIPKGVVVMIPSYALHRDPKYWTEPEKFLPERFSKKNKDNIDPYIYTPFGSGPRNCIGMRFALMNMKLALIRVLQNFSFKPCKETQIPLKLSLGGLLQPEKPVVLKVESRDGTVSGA
Procedure: as §1, §2, §3, §4, §5, §6, §7, §8, §9, §10, §11, §12, §13, §14, §15

[1] = system: maximal electroshock-induced epilepsy model; experiment: Maximal electroshock-induced epilepsy model, behavioral pharmacodynamics; assay type: in vivo; settings: dose 5 mg/kg, oral, one hour before electrical stimulation; male CD-1 mice
Source text: Assay Example 2: Evaluation of the behavioral pharmacodynamics of the test compounds in a maximal electroshock-induced epilepsy model
This study used behavioral tests in male CD-1 mice to investigate the effects of test compounds on acute epileptic seizures behavior induced by maximal electroshock.
Male CD-1 mice (25 to 35g) were used as the experimental animals and fed with standard feed (Beijing Vital River Laboratory Animal Technology Co., Ltd.).
After arriving at the animal facility, the experimental animals needed to acclimatize for at least one week. The mice were observed daily for vital signs, and randomly divided into groups according to their body weights one day before the drug administration. One hour before the electrical stimulation, different dosages of the test compound were orally administered to each group. On the day of the assay, the male CD-1 mice in each group were anesthetized locally at the cornea with 2% lidocaine. Then, silver bipolar electrodes were used to electrically stimulate the cornea of the mice with 18 mA, 60 Hz, a pulse width of 0.6 ms, and a stimulation time of 1 s to induce seizures. Subsequently, the latency of seizures and the duration of limb rigidity in mice after the electrical stimulation were observed, and the protection rate from seizures for each group was statistically analyzed.

[2] = Pharmacokinetic evaluation in mice (IV and PO); assay type: in vivo; settings: mouse, plasma, CD-1 mice, dose IV:1, PO:5 mg/kg
Procedure: Test Method 2: Pharmacokinetic Evaluation in Mice
Assay method: Test compounds were mixed with 5% DMSO / 60% polyethylene glycol (PEG400) / 35% water, vortexed and sonicated to obtain a clear 0.2 mg/mL solution, which was then filtered through a microporous membrane before use. Male CD-1 mice weighing 25-35 g were selected. The candidate compound solution was administered intravenously at a dose of 1 mg/kg. The candidate compound solution was orally administered at a dose of 5 mg/kg after fasting. Blood samples (25 µL each) were collected at 0.083, 0.25, 0.5, 1, 2, 4, 8, 12 and 24 hours after administration, and placed into commercial anticoagulant tubes pre-containing EDTA-K2. The tubes were centrifuged for 10 minutes to separate plasma, which was then stored at -60°C. The content of the target compound in plasma samples was determined by LC/MS/MS method, and pharmacokinetic parameters were calculated using Phoenix WinNonlin software (Pharsight, USA).
Tlast: time of the last detection point. AUC0-last: (Area Under the Concentration-Time Curve) refers to the area enclosed by the plasma drug concentration curve and the time axis. F (Bioavailability) is a measure of the rate and extent to which a drug is absorbed into the systemic circulation, serving as a critical indicator for evaluating the degree of drug absorption. […]

[3] = agonistic effect, CHO cells stably expressing hKCNQ2/3, FLIPR thallium flux, read-out: EC50

T1 sequence (O43526 whole entry): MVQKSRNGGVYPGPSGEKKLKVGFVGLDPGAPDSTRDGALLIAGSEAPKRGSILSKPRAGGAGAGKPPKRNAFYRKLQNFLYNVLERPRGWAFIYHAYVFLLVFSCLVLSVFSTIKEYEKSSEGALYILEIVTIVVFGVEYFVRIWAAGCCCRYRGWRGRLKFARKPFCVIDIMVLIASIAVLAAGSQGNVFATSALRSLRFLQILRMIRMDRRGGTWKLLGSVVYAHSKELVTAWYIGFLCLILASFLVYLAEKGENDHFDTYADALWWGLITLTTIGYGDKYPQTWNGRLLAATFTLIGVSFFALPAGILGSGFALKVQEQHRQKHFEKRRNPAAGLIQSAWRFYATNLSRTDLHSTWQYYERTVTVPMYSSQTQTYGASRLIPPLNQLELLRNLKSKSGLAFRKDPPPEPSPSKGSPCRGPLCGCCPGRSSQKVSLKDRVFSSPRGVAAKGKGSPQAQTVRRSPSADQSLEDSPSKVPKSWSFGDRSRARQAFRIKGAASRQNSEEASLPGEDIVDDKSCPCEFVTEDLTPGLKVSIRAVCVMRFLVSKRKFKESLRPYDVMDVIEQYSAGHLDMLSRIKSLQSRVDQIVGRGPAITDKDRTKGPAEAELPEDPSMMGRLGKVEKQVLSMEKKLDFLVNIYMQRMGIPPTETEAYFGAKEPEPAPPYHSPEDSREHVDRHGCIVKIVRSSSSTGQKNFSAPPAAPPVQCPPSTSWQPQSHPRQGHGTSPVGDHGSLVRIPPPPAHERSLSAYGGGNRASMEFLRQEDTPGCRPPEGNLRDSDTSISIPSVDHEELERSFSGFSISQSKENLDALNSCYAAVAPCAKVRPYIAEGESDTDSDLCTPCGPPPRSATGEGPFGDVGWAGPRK
T1 sequence (O43525 whole entry): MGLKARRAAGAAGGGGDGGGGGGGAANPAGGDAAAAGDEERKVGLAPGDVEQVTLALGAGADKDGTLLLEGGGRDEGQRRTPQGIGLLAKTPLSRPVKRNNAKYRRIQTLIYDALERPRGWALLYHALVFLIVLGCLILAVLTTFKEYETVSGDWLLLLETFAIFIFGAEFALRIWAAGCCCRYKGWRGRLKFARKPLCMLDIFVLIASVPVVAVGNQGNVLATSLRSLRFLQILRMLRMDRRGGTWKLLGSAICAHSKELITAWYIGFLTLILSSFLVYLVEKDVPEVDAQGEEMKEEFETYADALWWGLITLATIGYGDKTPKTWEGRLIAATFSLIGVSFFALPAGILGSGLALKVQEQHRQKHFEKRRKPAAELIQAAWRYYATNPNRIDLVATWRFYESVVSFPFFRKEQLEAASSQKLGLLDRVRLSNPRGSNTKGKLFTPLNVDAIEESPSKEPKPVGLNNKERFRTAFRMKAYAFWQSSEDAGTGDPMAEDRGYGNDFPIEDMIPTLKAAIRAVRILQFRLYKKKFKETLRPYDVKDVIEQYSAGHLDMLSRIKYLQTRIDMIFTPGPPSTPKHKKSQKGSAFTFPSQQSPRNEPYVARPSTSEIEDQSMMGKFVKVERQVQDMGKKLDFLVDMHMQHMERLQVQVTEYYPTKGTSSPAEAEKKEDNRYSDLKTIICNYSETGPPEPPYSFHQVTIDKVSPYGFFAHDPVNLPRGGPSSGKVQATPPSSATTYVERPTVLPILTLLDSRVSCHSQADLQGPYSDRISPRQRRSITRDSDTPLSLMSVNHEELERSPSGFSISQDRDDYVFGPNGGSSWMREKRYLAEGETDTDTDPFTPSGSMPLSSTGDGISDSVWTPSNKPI

Question: Which EC50 (hKCNQ2/3; [3]) does the source give for `Cc1c(NC(=O)C2CCC2)n(C)c2cc(Nc3ccc(F)cn3)ccc12` [Compound 22] here?
Answer: 0.43 µM

Question: Which EC50 (hKCNQ2/3) does the source give for `Cc1c(NC(=O)CC(C)(C)C)n(C)c2cc(Nc3ncc(F)cc3F)ccc12` [Compound 26] here?
Answer: 0.4 µM

Question: And the IC50 (CYP1A2)?
Answer: 19 µM

Question: What about the IC50 (CYP2C19) of the same compound?
Answer: 44 µM

Question: And the IC50 (CYP2C9)?
Answer: > 50 µM

Question: And the IC50 (CYP2D6)?
Answer: > 50 µM

Question: And the IC50 (CYP3A4)?
Answer: > 50 µM

Question: With `Cc1c(NC(=O)CC2(C)CC2)n(C)c2cc(Nc3ccc(F)cn3)ccc12` [Compound 28] as the compound, how does the EC50 (hKCNQ2/3; [3]) read?
Answer: 0.56 µM

Question: For `Cc1ccc(Nc2ccc3c(C)c(NC(=O)CC(C)(C)C)n(C)c3c2)nc1` [Compound 29], which EC50 (hKCNQ2/3; [3]) is on record?
Answer: 0.41 µM

Question: With `Cc1c(NC(=O)CC(C)(C)C)n(C)c2cc(Nc3ccc(Cl)cn3)ccc12` [Compound 30] as the compound, how does the EC50 (hKCNQ2/3; [3]) read?
Answer: 0.21 µM

Question: Which EC50 (hKCNQ2/3) does the source give for `Cc1nc(Nc2ccc3c(C)c(NC(=O)CC4(C)CC4)n(C)c3c2)ccc1F` [Compound 36] here?
Answer: 0.22 µM

Question: What about the “Seizure incidence (%)” value [1] of the same compound?
Answer: 0%

Question: What about the half-life ([2]; IV, read-out: Half-life T1/2 (IV) (converted)) of the same compound?
Answer: 1.7 h

Question: And the AUC(0-t) ([2]; PO, read-out: Area under the concentration-time curve AUC0-last PO)?
Answer: 29.5 µM·h

Question: What about the bioavailability ([2]; read-out: Bioavailability F) of the same compound?
Answer: 92.7%

Question: And the clearance ([2]; read-out: Clearance CL)?
Answer: 6.9 mL/min/kg

Question: And the Cmax ([2]; read-out: Peak plasma concentration Cmax)?
Answer: 4.75 µM

Question: And the Vd ([2]; read-out: Volume of distribution Vdss)?
Answer: 0.8 L/kg

Question: With `Cc1c(NC(=O)CC(C)(C)C)n(C)c2cc(Nc3ncc(F)cn3)ccc12` [Compound 38] as the compound, how does the EC50 (hKCNQ2/3; [3]) read?
Answer: 0.82 µM
